In PMC4645160, “Targeting kinases with anilinopyrimidines: discovery of N-phenyl-N’-[4-(pyrimidin-4-ylamino)phenyl]urea derivatives as selective inhibitors of class III receptor tyrosine kinase subfamily” (Scientific Reports, 2015):

Key:
BxPC3 cells = experiment: MTT cytotoxicity assay, BxPC3 pancreatic adenocarcinoma cells; type: cell-based, human; settings: for IC50: Homo sapiens, BXPC-3, MTT test, 72 h of drug treatment, read-out: BxPC3 IC50 (μM) ± SD
Protocol: Compounds active against at least one kinase among EGFR and class III RTKs were evaluated for their cytotoxic properties against two different human cancer cell lines, namely non small cells A549 lung cancer cells (sensitive to EGFR inhibitors)[46] and pancreatic BxPC3 adenocarcinoma (sensitive to both PDGFRβ and EGFR inhibitors)[47][48] cells. […] The results, expressed as IC50 values (μM) calculated from the dose-survival curves obtained after 72 h of drug treatment from the MTT test, are reported in Table 1.
(§1) All compounds, except derivative 27, were dissolved in DMSO just before the experiment, and a calculated amount of drug solution was added to the cell growth medium to a final solvent concentration of 0.5%, which had no discernible effect on cell killing. Compound 27 was dissolved in a 0.9% NaCl solution just before the experiment.
Human lung (A549), breast (MCF-7), pancreas (BxPC3), and colon (LoVo) carcinoma cell lines along with melanoma (A375) were obtained from American Type Culture Collection (ATCC, Rockville, MD). Human non-tumor embryonic kidney HEK293 cells were obtained from European Collection of Cell Cultures (ECACC, Salisbury, UK). Human cervical carcinoma A431cells were kindly provided by Prof. F. Zunino (Division of Experimental Oncology B, Istituto Nazionale dei Tumori, Milan, Italy). Human ovarian cancer 2008 cells were kindly provided by Prof. G. Marverti (Dept. of Biomedical Science of Modena University, Italy). Cell lines were maintained in the logarithmic phase at 37 °C in a 5% carbon dioxide atmosphere using the following culture media containing 10% fetal calf serum (Euroclone, Milan, Italy), antibiotics (50 units ∙ mL^−1 penicillin and 50 μg ∙ mL^−1 streptomycin) and 2 mM l-glutamine: i) RPMI-1640 medium (Euroclone) for MCF-7, A431, BxPC3 and 2008 cells; ii) F-12 HAM’S (Sigma Chemical Co.) for A549 and LoVo cells; iii) D-MEM medium (Euroclone) for HEK293 cells.
The growth inhibitory effect towards human cell lines was evaluated by means of MTT (tetrazolium salt reduction) assay. Briefly, 3–8 ∙ 10^3 cells/well, dependent upon the growth characteristics of the cell line, were seeded in 96-well microplates in growth medium (100 μL) and then incubated at 37 °C in a 5% carbon dioxide atmosphere. After 24 h, the medium was removed and replaced with a fresh one containing the test compound at the appropriate concentration. Triplicate cultures were established for each treatment. After 72 h, each well was treated with 10 μL of a 5 mg ∙ mL-1 MTT (3-(4,5-dimethylthiazol-2-yl)-2,5-diphenyltetrazolium bromide) saline solution, and after 5 h additional incubation, 100 μL of a sodium dodecylsulfate (SDS) solution in HCl 0.01 M were added. After overnight incubation, the inhibition of cell growth induced by the tested complexes was detected by measuring the absorbance of each well at 570 nm using a Bio-Rad 680 microplate reader (Bio-Rad, Hercules, CA). Mean absorbance for each drug dose was expressed as a percentage of the control untreated well absorbance and plotted vs drug concentration.

2008 cells = experiment: MTT cytotoxicity assay, 2008 ovarian cancer cells; type: cell-based; settings: Homo sapiens; MTT test, 72 h; read-out: 2008 IC50 (μM) ± SD
Protocol: (§2) The cytotoxic profile of 19 and 27 was assessed on a wider panel of human tumor cell lines including also examples of breast (MCF-7), cervical (A431), colorectal (HCT-15), and ovarian (2008) cancers as well as melanoma (A375), besides lung (A549) and pancreatic (BxPC3) cancer cells. IC50 values, calculated from the dose-survival curves obtained after 72 h of drug treatment from the MTT test, are reported in Table 2. […] Both compounds were endowed with a cytotoxic potency higher than that of SU, eliciting IC50 values in the low micromolar range.
as §1
(§3) Human lung (A549), breast (MCF-7), pancreas (BxPC3), and colon (LoVo) carcinoma cell lines along with melanoma (A375) were obtained from American Type Culture Collection (ATCC, Rockville, MD). Human non-tumor embryonic kidney HEK293 cells were obtained from European Collection of Cell Cultures (ECACC, Salisbury, UK). Human cervical carcinoma A431cells were kindly provided by Prof. F. Zunino (Division of Experimental Oncology B, Istituto Nazionale dei Tumori, Milan, Italy). Human ovarian cancer 2008 cells were kindly provided by Prof. G. Marverti (Dept. of Biomedical Science of Modena University, Italy). […]
(§4) The growth inhibitory effect towards human cell lines was evaluated by means of MTT (tetrazolium salt reduction) assay. […] After overnight incubation, the inhibition of cell growth induced by the tested complexes was detected by measuring the absorbance of each well at 570 nm using a Bio-Rad 680 microplate reader (Bio-Rad, Hercules, CA). Mean absorbance for each drug dose was expressed as a percentage of the control untreated well absorbance and plotted vs drug concentration.

MCF-7 cells = experiment: MTT cytotoxicity assay, MCF-7 breast cancer cells; type: cell-based; settings: Homo sapiens, MCF7; MTT test, 72 h; read-out: MCF-7 IC50 (μM) ± SD
Protocol: as §2, §1, §3, §4

A431 cells = experiment: MTT cytotoxicity assay, A431 epidermoid carcinoma cells; type: cell-based; settings: Homo sapiens, A-431; MTT test, 72 h; read-out: A431 IC50 (μM) ± SD
Protocol: F. Zunino (Division of Experimental Oncology B, Istituto Nazionale dei Tumori, Milan, Italy).
The growth inhibitory effect towards human cell lines was evaluated by means of MTT (tetrazolium salt reduction) assay. […] Triplicate cultures were established for each treatment.

LoVo cells = experiment: MTT cytotoxicity assay, LoVo colon carcinoma cells; type: cell-based; settings: Homo sapiens, MTT test, 72 h, read-out: LoVo IC50 (μM) ± SD
Protocol: as §2, §1, §3, §4

KIT = biological target: T1, KIT (Homo sapiens, UniProt P10721); experiment: KinomeScan Kd determination, KIT; type: binding; settings: for KdRTK/KdKIT, KIT: Kd KIT over Kd KIT; for Kd: KinomeScan
T1 construct: purchased DiscoverX (KinomeScan service)
Protocol: (§5) The compounds were evaluated using the KinomeScan™ platform (http://www.discoverx.com/services/drug-discovery-development-services/kinase-profiling/kinomescan), that measures the ability of the test compound to disrupt the complex between a high affinity ATP-mimic probe immobilized on a solid support and the kinase of interest. The KinomeScan is a very helpful technology for the fast and reliable screening of a number of compounds against a wide and customizable panel of kinases. Besides, it is not based on the use of hazardous radioactive ^32P-ATP and has a very low rate of false positive (<1%)[44]. The screening platform outputs a “Percent of Control” (POC) value, statistically correlated to the dissociation constant (Kd) value (http://www.discoverx.com/tools-resources/leadhunter-study-reports-data-analysis), for each pair of kinase/ligand. The POC is calculated as reported in equation (1): […]
(§6) The ability of compounds 19 and 27 to bind the class III RTK members was measured (Table 2; see also Figs S3 and S4 for dose/response curves).
(§7) Figure S3. Dose/response curve for compound 19 against tested kinases for Kd determination. The amount of kinase measured by qPCR (Signal; y-axis) is plotted against the corresponding compound concentration in nM in log10 scale (x-axis). Data points marked with an "x" were not used for Kd determination.
(§8) (1 picture or pasted object on this page, not shown here)
(§9) Figure S4. Dose/response curve for compound 27 against tested kinases for Kd

PDGFRα = biological target: T2, PDGFRα (Homo sapiens, UniProt P16234); experiment: KinomeScan Kd determination, PDGFRα; type: binding; settings: for KdRTK/KdKIT, PDGFRα: Kd PDGFRα over Kd KIT; for Kd: KinomeScan
T2 construct: purchased DiscoverX (KinomeScan service)
Protocol: as §5, §6, §7, §8, §9

PDGFRβ = biological target: T3, PDGFRβ (Homo sapiens, UniProt P09619); experiment: KinomeScan Kd determination, PDGFRβ; type: binding; settings: for KdRTK/KdKIT, PDGFRβ: Kd PDGFRβ over Kd KIT; for Kd: KinomeScan
T3 construct: purchased DiscoverX (KinomeScan service)
Protocol: as §5, §6, §7, §8, §9

[1] = MTD studies (highest not toxic dose); type: in vivo; settings: C57BL, mouse, in vivo; daily ip; read-out: Highest not toxic dose as determined by MTD studies

T1 sequence (P10721 26-976): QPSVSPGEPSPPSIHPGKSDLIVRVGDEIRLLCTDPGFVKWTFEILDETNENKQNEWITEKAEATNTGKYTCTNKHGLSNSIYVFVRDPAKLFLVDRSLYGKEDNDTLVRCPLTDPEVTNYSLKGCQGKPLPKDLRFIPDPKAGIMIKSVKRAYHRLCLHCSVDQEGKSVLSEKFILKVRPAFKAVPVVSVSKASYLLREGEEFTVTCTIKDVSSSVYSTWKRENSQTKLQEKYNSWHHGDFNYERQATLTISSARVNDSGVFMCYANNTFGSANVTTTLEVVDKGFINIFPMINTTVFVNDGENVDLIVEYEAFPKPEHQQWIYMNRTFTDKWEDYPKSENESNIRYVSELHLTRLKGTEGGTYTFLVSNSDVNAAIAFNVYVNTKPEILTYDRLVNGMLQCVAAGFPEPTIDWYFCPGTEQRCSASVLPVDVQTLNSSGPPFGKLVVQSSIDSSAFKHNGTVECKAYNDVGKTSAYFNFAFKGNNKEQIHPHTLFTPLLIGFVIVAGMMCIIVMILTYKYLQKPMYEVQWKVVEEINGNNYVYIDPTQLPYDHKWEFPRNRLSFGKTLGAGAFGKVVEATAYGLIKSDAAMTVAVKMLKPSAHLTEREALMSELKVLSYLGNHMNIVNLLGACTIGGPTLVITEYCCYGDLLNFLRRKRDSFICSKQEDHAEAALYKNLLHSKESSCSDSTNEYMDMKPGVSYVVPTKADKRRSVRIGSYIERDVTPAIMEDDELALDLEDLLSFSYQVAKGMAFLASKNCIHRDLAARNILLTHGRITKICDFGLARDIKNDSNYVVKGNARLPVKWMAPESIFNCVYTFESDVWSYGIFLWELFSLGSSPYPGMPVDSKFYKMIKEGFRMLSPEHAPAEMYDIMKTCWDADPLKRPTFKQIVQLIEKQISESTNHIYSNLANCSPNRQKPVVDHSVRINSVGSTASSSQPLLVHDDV
T3 sequence (P09619 33-1106): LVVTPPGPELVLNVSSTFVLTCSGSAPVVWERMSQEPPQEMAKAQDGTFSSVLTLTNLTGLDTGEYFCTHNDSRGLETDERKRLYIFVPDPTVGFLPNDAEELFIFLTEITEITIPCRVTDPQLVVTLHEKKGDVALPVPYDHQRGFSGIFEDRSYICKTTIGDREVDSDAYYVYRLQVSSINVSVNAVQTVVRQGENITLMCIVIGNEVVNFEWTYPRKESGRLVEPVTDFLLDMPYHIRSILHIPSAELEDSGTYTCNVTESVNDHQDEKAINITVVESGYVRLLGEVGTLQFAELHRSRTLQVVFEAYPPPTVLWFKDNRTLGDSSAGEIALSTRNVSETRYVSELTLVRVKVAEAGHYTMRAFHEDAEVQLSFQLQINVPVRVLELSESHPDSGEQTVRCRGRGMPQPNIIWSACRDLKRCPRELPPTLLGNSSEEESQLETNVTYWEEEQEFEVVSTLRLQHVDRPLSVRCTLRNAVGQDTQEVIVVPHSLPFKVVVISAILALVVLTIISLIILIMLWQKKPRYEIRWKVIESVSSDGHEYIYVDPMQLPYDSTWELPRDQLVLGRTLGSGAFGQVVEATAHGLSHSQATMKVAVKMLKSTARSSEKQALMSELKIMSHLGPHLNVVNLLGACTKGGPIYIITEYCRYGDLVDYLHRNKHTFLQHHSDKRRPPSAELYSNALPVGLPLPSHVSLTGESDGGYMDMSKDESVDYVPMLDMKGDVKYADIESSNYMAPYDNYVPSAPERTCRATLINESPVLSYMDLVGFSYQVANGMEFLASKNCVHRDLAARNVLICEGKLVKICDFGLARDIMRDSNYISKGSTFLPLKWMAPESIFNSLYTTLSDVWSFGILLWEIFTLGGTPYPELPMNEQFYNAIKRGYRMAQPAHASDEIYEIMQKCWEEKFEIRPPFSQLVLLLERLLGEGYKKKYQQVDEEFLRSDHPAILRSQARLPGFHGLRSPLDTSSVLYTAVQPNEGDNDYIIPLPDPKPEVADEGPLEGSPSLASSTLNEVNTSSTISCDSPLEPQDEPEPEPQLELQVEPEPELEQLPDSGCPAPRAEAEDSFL
T2 sequence (P16234 24-1089): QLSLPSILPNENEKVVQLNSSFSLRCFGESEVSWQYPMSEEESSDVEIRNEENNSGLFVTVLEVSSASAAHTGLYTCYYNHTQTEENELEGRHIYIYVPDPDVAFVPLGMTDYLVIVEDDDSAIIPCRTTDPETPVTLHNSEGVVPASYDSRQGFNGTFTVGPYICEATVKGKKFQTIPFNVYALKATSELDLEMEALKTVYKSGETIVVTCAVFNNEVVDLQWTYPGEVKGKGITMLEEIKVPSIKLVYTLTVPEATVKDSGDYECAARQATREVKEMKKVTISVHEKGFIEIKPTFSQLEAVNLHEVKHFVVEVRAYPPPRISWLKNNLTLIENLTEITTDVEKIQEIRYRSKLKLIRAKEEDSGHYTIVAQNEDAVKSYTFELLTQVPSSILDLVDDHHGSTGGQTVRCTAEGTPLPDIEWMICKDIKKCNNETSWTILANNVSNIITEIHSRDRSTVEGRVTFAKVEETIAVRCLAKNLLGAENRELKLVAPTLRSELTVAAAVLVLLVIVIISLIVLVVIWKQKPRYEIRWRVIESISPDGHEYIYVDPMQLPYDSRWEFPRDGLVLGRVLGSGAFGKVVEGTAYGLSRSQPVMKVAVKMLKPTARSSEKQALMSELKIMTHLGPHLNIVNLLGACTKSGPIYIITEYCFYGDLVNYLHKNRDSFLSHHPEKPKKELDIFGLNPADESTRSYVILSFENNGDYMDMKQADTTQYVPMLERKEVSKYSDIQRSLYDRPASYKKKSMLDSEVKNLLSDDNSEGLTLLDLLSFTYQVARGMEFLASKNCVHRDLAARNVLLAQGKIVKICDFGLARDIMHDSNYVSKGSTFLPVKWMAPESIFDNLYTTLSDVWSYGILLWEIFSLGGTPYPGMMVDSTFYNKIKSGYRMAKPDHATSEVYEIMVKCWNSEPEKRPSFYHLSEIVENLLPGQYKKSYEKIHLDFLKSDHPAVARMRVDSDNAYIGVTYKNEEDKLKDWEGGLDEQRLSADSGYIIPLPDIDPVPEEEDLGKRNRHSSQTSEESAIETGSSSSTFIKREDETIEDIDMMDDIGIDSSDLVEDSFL

O=C(Nc1ccccc1)Nc1ccc(Nc2cc(-c3ccccc3)ncn2)cc1 [Compound 19]
IC50 (BxPC3 cells): 0.77 ± 0.21 µM
IC50 (2008 cells): 1.98 ± 0.75 µM
IC50 (MCF-7 cells): 1.23 ± 0.89 µM
IC50 (A431 cells): 2.85 ± 1.03 µM
IC50 (LoVo cells): 7.45 ± 1.53 µM
KdRTK/KdKIT, KIT (KIT): 1
Kd (KIT): 22 nM
KdRTK/KdKIT, PDGFRα (PDGFRα): 44
Kd (PDGFRα): 960 nM
KdRTK/KdKIT, PDGFRβ (PDGFRβ): 4
Kd (PDGFRβ): 80 nM

O=C(CN1CCOCC1)Nc1cccc(-c2cc(Nc3ccc(NC(=O)Nc4ccccc4)cc3)ncn2)c1 [Compound 27]
IC50 (BxPC3 cells): 0.81 ± 0.32 µM
Potency relative to SU (BxPC3) (BxPC3 cells; ratio between IC50 of sunitinib and IC50 of tested compound, BxPC3): 6
IC50 (2008 cells): 1.82 ± 0.73 µM
IC50 (MCF-7 cells): 1.55 ± 0.75 µM
IC50 (A431 cells): 1.96 ± 0.92 µM
IC50 (LoVo cells): 7.76 ± 1.28 µM
Potency improvement Kd19/Kd27, KIT (KIT; 27 versus 19): 2.2
KdRTK/KdKIT, KIT (KIT): 1
Kd (KIT): 10 nM
Potency improvement Kd19/Kd27, PDGFRα (PDGFRα; 27 versus 19): 8.7
KdRTK/KdKIT, PDGFRα (PDGFRα): 11
Kd (PDGFRα): 110 nM
Potency improvement Kd19/Kd27, PDGFRβ (PDGFRβ; 27 versus 19): 1.1
KdRTK/KdKIT, PDGFRβ (PDGFRβ): 7
Kd (PDGFRβ): 70 nM
MTD [1]: 7.5 mg/kg
